Like-named read-outs stand apart in the source and are kept apart here.
Assays:
[1] = background literature, cited from earlier work
Chymotripsin = Chymotripsin (Bos taurus, UniProt P00766); test: Chymotripsin inhibiting activity (hydrolysis of ATEE); format: biochemical; settings: 0.5 h; 1 × 10^-4 mol; 20 min preincubation, ATEE 30 min, 37° C., pH 8.0
Protocol: 2. Chymotripsin Inhibiting Activity
Chymotripsin (0.1 unit) serving as an enzyme solution is added to a specified quantity of buffer solution (pH 8.0) containing 0.1 mole of trishydrochloric acid. To the mixture is further added a 50% ethanol solution of the compound of the invention. The mixture is reacted at 37° C. for 20 minutes.
On completion of the reaction, 10 micromoles of […] (ATEE) serving as a substrate is added to the mixture, and the resulting mixture is reacted at 37° C. for 30 minutes.
After the completion of the reaction, the amount of remaining ATEE is determined by the same hydroxamic acid method as above. The percent chymotripsin inhibition is given by [formula] wherein A is the amount of hydrolzed esters in the reaction system not containing the compound of the invention, and B is the amount of hydrolyzed esters in the reaction system containing the present compound.

[2] = test system: triglycerides content in the plasma; test: Antilipemic effect: inhibition of olive oil-induced hyperlipidemia, plasma triglycerides; format: in vivo, male Wister rats; settings: Rattus norvegicus, 100 mg compound in 5 ml olive oil, 5 ml/kg oral, 2 hours, read-out: Antilipemic effect IGI (%) (percent hyperlipidemia inhibition, triglycerides)
Protocol: Seven-week-old male Wister rats weighing 200 to 220 g are used, 5 rats in each group.
The compound of the invention (100 mg) is dissolved in 5 ml of olive oil. The olive oil containing the compound is orally given to the rat with a probe at a dose of 5 ml/kg. Two hours thereafter, 6 ml of whole blood is withdrawn from the descending aorta of the rat under ether anesthesia with a syringe containing heparin. The blood is centrifuged at 5° C. and 3000 r.p.m. to obtain the plasma. The plasma collected is used for determining the triglycerides content, using a triglycerides measuring kit (trade mark "Triglycerides-B Test Wako," product of Wako Junyaku Co., Ltd., Japan). Olive oil containing no compound is similarly given to a control group, while no treatment is conducted for a normal group. The triglycerides content in the plasma is also determined for these groups in the same manner as is the case with the test groups.
The percent hyperlipidemia inhibition achieved by the present compound is given by [formula] in which A is the triglycerides content of the control group, B is the triglycerides content of the normal group, and C is the triglycerides content of the group to which the present compound is given.

[3] = target: esterase (purified microsome fraction of the liver of a rat); test: Esterase inhibiting activity (hydrolysis of methyl butyrate); format: biochemical; settings: methyl butyrate substrate, pH 8.0, 37° C., 60 minutes
Protocol: 1. Esterase Inhibiting Activity
A 10 micromole quantity of methyl butyrate in a 50% ethanol solution is added as a substrate to a specified amount of buffer solution (pH 8.0) containing 0.1 mole of trishydrochloric acid. To the mixture is further added a 50% ethanol solution of the compound of the invention, immediately followed by addition of an esterase solution prepared from a purified microsome fraction of the liver of a rat (adjusted to hydrolyze 9 micromoles of methyl butyrate at 37° C. in one hour). The mixture is reacted at 37° C. for 60 minutes.
After the reaction, alkaline hydroxylamine is added to the mixture to form a hydroxamic acid derivative of methyl butyrate, and a ferric salt is added to the derivative. The resulting red color is colorimetrically determined (at a wavelength of 540 nm) to determine the amount of remaining methyl butyrate. The esterase inhibiting ratios of the present compound at least at three concentrations are plotted as ordinate, and the logarithms of the concentrations as abscissa to obtain a line, which gives the 50% inhibition concentration (IC50).

[4] = Acute toxicity, oral, one week; settings: rat, in vivo, 5% gum arabic suspension
Text: Six-week-old male Wister rats weighing 180 to 200 g are used, 5 rats in each group. The present compound is suspended in a 5% aqueous solution of gum arabic, and the suspension is orally given to the rats. For one week after the start of the test, the rats are checked evey day for general toxicity symptoms, body weight and death to determine the LD50 value.

Compound | reported side effects (in words) [1] | reported side effects (in words) ([1]; listed as clofibrate) | inhibition at 100 µM (Chymotripsin) | inhibition in vivo at 100 mg/kg [2] | IC50 [3] | LD50 at 168 h [4]
CCOC(=O)C(C)(C)Oc1ccc(Cl)cc1 [Clofibrate] | carcinogenic activity | increased sterol discharge | – | – | – | –
O=C(O)c1cccnc1 [Nicotinic acid] | pruritus and cutaneous flushing due to vasodilatation, gastrointestinal disorders, abnormalities in liver function and glucose intolerance | – | – | – | – | –
CCC(CC1CCCCC1)C(=O)COS(=O)(=O)c1ccccc1 (stereo not shown) [Compound 5, 1-benzenesulfonyloxy-4-cyclohexyl-3-ethyl-2-butanone] | – | – | 12% | 80% | 4.7 µM | > 2000 mg/kg

— patent US4452813A, “Sulfonate derivatives, process for preparing same and antilipemic compositions containing the derivative” (Taiho Pharmaceutical Company Limited, priority 1981, dated 1984)
